One block for each compound: values may come before it.
Key:
[1] = system: Human immunodeficiency virus 1; experiment: Antiviral activity against HIV1 3B; format: functional, organism-based; conditions: Human immunodeficiency virus 1, 3B
[2] = system: Human immunodeficiency virus 2; experiment: Antiviral activity against HIV2 ROD; format: functional, organism-based; conditions: Human immunodeficiency virus 2, ISOLATE ROD
[3] = system: Human immunodeficiency virus; experiment: Antiviral activity against HIV infected in human MT4 cells assessed as reduction in virus-induced cytopathogenicity; format: functional, organism-based; conditions: Human immunodeficiency virus 1, MT4
[4] = system: Human immunodeficiency virus 1; experiment: Antiviral activity against HIV1 infected in human C8166 cells assessed as inhibition of virus replication; format: functional, organism-based; conditions: Human immunodeficiency virus 1, C8166
[5] = Cytotoxicity against human C8166 cells; format: cell-based; conditions: human, C8166 cells
[6] = system: Human immunodeficiency virus 1; experiment: Antiviral activity against HIV1 3B infected in human MT2 cells assessed as reduction in virus-induced cell death; format: functional; conditions: Human immunodeficiency virus 1, 3B
[7] = system: Human immunodeficiency virus 1; experiment: Antiviral activity against HIV1; format: functional, organism-based
[8] = system: Human immunodeficiency virus; experiment: Antiviral activity against HIV expressing raltegravir-resistant integrase mutants; format: functional, organism-based; conditions: Human immunodeficiency virus 1
[9] = system: Human immunodeficiency virus; experiment: Antiviral activity against HIV by XTT assay; format: functional, organism-based; conditions: Human immunodeficiency virus 1

EC50 [1]: 5.1 µM
EC50 [2]: > 150 µM
Structure (SMILES): N#Cc1ccccc1CN1C(=O)N(Cc2ccccc2)S(=O)(=O)n2cccc21

EC50 [3]: > 39 µg/mL
Structure (SMILES): CCOC(=O)CCC(NC(=O)c1ccc(Nc2nc3cc(C(F)(F)F)ccc3n3cccc23)cc1)C(=O)OCC (stereo not drawn)

EC50 [4]: 1.65 µM
Structure (SMILES): CCOC(=O)c1ncc(O)c2c1C(=O)N(CCc1ccc(F)cc1)C2=O
CC50 [5]: 13.2 µM

EC50 [4]: 9.15 µM
Structure (SMILES): CCOC(=O)c1ncc(O)c2c1C(=O)N(CCc1ccc(OC)c(OC)c1)C2=O
CC50 [5]: 33.5 µM

EC50 [7]: 0.0216 µM
Structure (SMILES): C[C@@H]1CN(C(=O)c2ccccc2)CCN1C(=O)C(=O)c1c[nH]c2cnccc12

EC50 [4]: 2.34 µM
Structure (SMILES): CCOC(=O)c1ncc(O)c2c1C(=O)N(CCc1ccc(C)cc1)C2=O
CC50 [5]: 15.5 µM

EC50 [3]: > 31 µg/mL
Structure (SMILES): COc1ccc(Nc2nc3ccccc3n3cccc23)cc1OC

EC50 [7]: 0.0017 µM
Structure (SMILES): C[C@@H]1CN(C(=O)c2ccccc2)CCN1C(=O)C(=O)c1c[nH]c2ncccc12

EC50 [1]: 7.2 µM
EC50 [2]: > 150 µM
Structure (SMILES): O=C1N(Cc2ccccc2Cl)c2cccn2S(=O)(=O)N1Cc1cccc(F)c1

EC50 [1]: 11 µM
EC50 [2]: > 150 µM
Structure (SMILES): O=C1N(Cc2cccc(Cl)c2)c2cccn2S(=O)(=O)N1Cc1cccc(F)c1

EC50 [1]: 6.5 µM
EC50 [2]: > 150 µM
Structure (SMILES): N#Cc1cccc(CN2C(=O)N(Cc3ccccc3)S(=O)(=O)n3cccc32)c1

EC50 [4]: 5.7 µM
Structure (SMILES): O=C(NCc1ccc(F)cc1)c1ncc(O)c2c1C(=O)N(CCc1ccc(F)cc1)C2=O
CC50 [5]: 30.8 µM

EC50 [7]: 0.0016 µM
Structure (SMILES): C[C@@H]1CN(C(=O)c2ccccc2)CCN1C(=O)C(=O)c1c[nH]c2cccnc12

EC50 [1]: 18 µM
EC50 [2]: > 150 µM
Structure (SMILES): O=C1N(Cc2ccccc2Cl)c2cccn2S(=O)(=O)N1Cc1cccc(Br)c1

EC50 [1]: 8.9 µM
EC50 [2]: > 150 µM
Structure (SMILES): O=C1N(Cc2ccccc2Cl)c2cccn2S(=O)(=O)N1Cc1cccc(Cl)c1

EC50 [4]: 3.1 µM
Structure (SMILES): CCOC(=O)c1ncc(O)c2c1C(=O)N(CC(c1ccccc1)c1ccccc1)C2=O
CC50 [5]: 25.2 µM

EC50 [3]: > 15 µg/mL
Structure (SMILES): O=C(O)c1ccc(Nc2nc3cc(C(F)(F)F)ccc3n3cccc23)cc1

EC50 [3]: > 8 µg/mL
Structure (SMILES): O=C(O)c1ccc(OCc2nc3ccccc3n3cccc23)cc1

EC50 [1]: 5.6 µM
EC50 [2]: > 150 µM
Structure (SMILES): N#Cc1ccccc1CN1C(=O)N(Cc2cccc(F)c2)S(=O)(=O)n2cccc21

EC50 [4]: 9.37 µM
Structure (SMILES): CCOC(=O)c1ncc(O)c2c1C(=O)N(CCc1c[nH]c3ccccc13)C2=O
CC50 [5]: 26.7 µM

EC50 [3]: > 16 µg/mL
Structure (SMILES): COc1ccc(OCc2nc3ccccc3n3cccc23)cc1

More lines, now with the values behind:

Structure (SMILES): CN1C(=O)[C@H](Cc2ccc(O)cc2)n2cccc2-c2ccccc21
IC90 [6]: > 0.29 µg/mL

Structure (SMILES): COC(=O)CCC1=C2C(=O)N(Cc3ccc(F)c(Cl)c3)C(=O)C2=C(O)C(=O)C1C(C)C (stereo not drawn)
IC50 [8]: 7.1 µM

Structure (SMILES): COc1ccc(Nc2nc3cc(C(F)(F)F)ccc3n3cccc23)cc1OC
EC50 [3]: > 27 µg/mL

Structure (SMILES): O=C1CC(CO)=C2C(=O)N(Cc3ccc(F)c(Cl)c3)C(=O)C2=C1O
IC50 [8]: 6.5 µM

Structure (SMILES): CCCCCCCCC(=O)NC1=NN(C)c2ncnc3c2c1cn3[C@@H]1O[C@H](CO)[C@@H](O)[C@H]1O
IC50 [9]: > 100 µM

Structure (SMILES): CCCCCCCC(=O)NC1=NN(C)c2ncnc3c2c1cn3[C@@H]1O[C@H](CO)[C@@H](O)[C@H]1O
IC50 [9]: > 100 µM

Structure (SMILES): CC(=O)OCC1=C2C(=O)N(Cc3ccc(F)c(Cl)c3)C(=O)C2=C(O)C(=O)C1C(C)C (stereo not drawn)
IC50 [8]: 15.6 µM

Structure (SMILES): CN1N=C(N)c2cn([C@H]3CC[C@@H](CO)O3)c3ncnc1c23
EC50 [7]: 21 µM

Structure (SMILES): CCCCCCCCCC(=O)NC1=NN(C)c2ncnc3c2c1cn3[C@@H]1O[C@H](CO)[C@@H](O)[C@H]1O
IC50 [9]: > 100 µM

Structure (SMILES): CC(=O)OCC1=C2C(=O)N(Cc3ccc(F)c(Cl)c3)C(=O)C2=C(O)C(=O)C1
IC50 [8]: 12.3 µM

Structure (SMILES): CC1=C2C(=O)N(Cc3ccc(F)c(Cl)c3)C(=O)C2=C(O)C(=O)C1c1ccccc1 (stereo not drawn)
IC50 [8]: 6.4 µM

Structure (SMILES): CC1=C2C(=O)N(Cc3ccc(F)c(Cl)c3)C(=O)C2=C(O)C(=O)C1C (stereo not drawn)
IC50 [8]: 6.7 µM

Structure (SMILES): CCCC(=O)NC1=NN(C)c2ncnc3c2c1cn3[C@@H]1O[C@H](CO)[C@@H](O)[C@H]1O
IC50 [9]: 0.5 µM

Structure (SMILES): O=Cc1ccc2n1[C@@H](Cc1ccccc1)C(=O)Nc1ccccc1-2
IC90 [6]: > 0.29 µg/mL

From ChEMBL document CHEMBL3608235, “Pyrroloaryls and pyrroloheteroaryls: Inhibitors of the HIV fusion/attachment, reverse transcriptase and integrase” (Bioorg Med Chem, 2015)
